Patent US11066369B2, “N-(pyridin-2-yl)pyridine-sulfonamide derivatives and their use in the treatment of disease” (Novartis AG, priority 2016, dated 2021)
Counter-ions that a name gives are not always drawn. Like-named read-outs stand apart in the source and are kept apart here.

Tests used:
[1] = molecular target: T1, horseradish peroxidase (HRP) tagged delF508-CFTR (Homo sapiens, UniProt P13569, DEL508-508); experiment: Measurement of delF508-CFTR-HRP surface expression in CFBE41o- cells; assay type: cell-based; conditions: for Emax: read-out: DelF508-CFTR-HRP Amax %;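 as to DelF508-CFTR-HRP Amax %: percent efficacy relative to reference corrector lumacaftor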
T1 construct: expressed in transfected cells
Summary of the method: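 Surface-trafficked delF508-CFTR detected via extracellular HRP tag, read as luminescence from a membrane-impermeant substrate in CFBE41o- cells. Cells pre-induced 48h with 500 ng/mL doxycycline, then exposed 24h at 37° C to a 10-point, 3-fold dilution series from 10 μM (DMSO ≤0.5%). Triplicate dose-responses fitted logistically for EC50 after per-plate normalization; fold change versus reference compound.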

delF508-CFTR = molecular target: T2, delF508-CFTR (Homo sapiens, UniProt P13569, DEL508-508); experiment: Measurement of delF508-CFTR functional activity in primary human bronchial epithelial cells (HBECs) using Multi-Transepithelial Clamp Circuit (MTECC-24) assay; assay type: cell-based; conditions: primary CF HBECs; for MTECC24 CFHBEC- Amax %: test compound added 24h before assay plus potentiator, relative to reference combination (2 μM corrector + 0.5 μM potentiator); for EC50: test compound added 24h before assay, in the presence of potentiator, mean of at least two replicates, read-out: MTECC24 CFHBEC- EC50
T2 construct: functional activity of the CFTR channel (Chloride ion transport) in patient derived primary human bronchial epithelial cells; host or cells: patient-derived primary human bronchial epithelial cells (delF508-CFTR)
Excerpt: [formula] Measurement of delF508-CFTR Functional Activity in Primary Human Bronchial Epithelial Cells (HBECs) Using Multi-Transepithelial Clamp Circuit (MTECC-24) Assay
This assay measures the functional activity of the CFTR channel (Chloride ion transport) in patient derived primary human bronchial epithelial cells with forskolin activation and in the presence of the CFTR corrector/potentiator combo.
Primary human delF508-CFTR bronchial epithelial cells were purchased from Asterand and cultured according to previously established methods (Fulcher et al. (2005) Methods Mol Med 107: 183-206). Briefly, vendor supplied cells were rapidly defrosted and added to a T175 flask in 50 mL growth media (Lonza BEBM media with Lonza BEGM singlequots). Media was replaced after 24h and then cells were fed every other day until cells were 80-90% confluent, at which point cells were cryopreserved. These P1 vials were thawed at 37° C. as needed and added to T175 flasks in 50 mL growth media at 5×10^5 cells/flask. Media was replaced after 24h, and then cells were fed every other day until 80-90% confluent. Cells were lifted with 5 mL accutase at 37° C. for 5 minutes, centrifuged at 1000 rpms for 5 min (300 g), and resuspended in differentiation media (50% BEBM in DMEM, BEGM singlequots, all trans retinoic acid (5×10^−8M)). Cells were then counted and cell suspension was added to collagen coated inserts at 3×10^4 cells/insert in 0.15 mL with 0.5 mL differentiation media on the basolateral side.
Apical and basolateral media were replaced on alternate days, and following day 7 (or when confluent plus 2 days), air liquid interface was established for approximately two weeks by removal of apical media. One day prior to use on the MTECC24 system (EP-Devices, EP Design, Belgium), 0.15 mL of warmed (37° C.) PBS was added to the apical surface of the cultures and returned to humidifier (37° C., 5% CO2 incubator) for 30 min before aspirating the apical surface to remove any mucus.
Compound treatments were then prepared. Compound dilutions, typically a 10 point concentration response with 1 in 3 dilution steps, were made in 100% DMSO before dilution 1 in 1000 into differentiation medium with a final DMSO concentration of 0.1% or 0.2% for the study. Compound containing medium was then transferred into the wells of a 24 well plate at 0.5 mL per well and warmed for 30 min in a 37° C. incubator prior to transferring washed inserts into the compound containing plates. Cells were incubated in compound containing medium (basolateral only) for 24h prior to measurement in the MTECC24 system.
Following 24 hr treatment, compound dilutions were prepared again, diluted 1 in 1000 into 37° C. assay medium (F-12 Coon's modified, 20 mM HEPES pH7.4 with TRIS Base, No FCS or bicarbonate). Cells which were treated for 24h with test compound were then transferred into plates containing 0.75 mL compound treatment in assay medium (basolateral) and 0.25 mL of the compound containing assay medium was added to the apical surface. The plates were then transferred to the heated plate compartments of the MTECC24 system for 45 min prior to measurements (this can also be done in a non-CO2 37° C. humidified incubator). Basolateral temperature should not exceed 36.5° C. and apical temperature should be approximately 35.5° C.
Modulators were added sequentially as follows while the MTECC24 instrument recorded the equivalent short circuit current (Ieq):
Prior to dilution into F-12 medium the stocks are as follows:
Amiloride stock is 10 mM in H2O
Forskolin Stock is 10 mM in 100% DMSO
(S)-3-amino-6-methoxy-N-(3,3,3-trifluoro-2-hydroxy-2-methylpropyl)-5-(trifluoromethyl)picolinamide is 0.5 mM stock in 100% DMSO
INH-172 (4-[[4-Oxo-2-thioxo-3-[3-trifluoromethyl)phenyl]-5-thiazolidinylidene]methyl]benzoic acid) stock is 30 mM in 100% DMSO
The data was normalized using the median signal from wells treated with 0.1% DMSO as a baseline. […]

[2] = delF508-CFTR-HRP surface expression, CFBE41o- cells
[3] = delF508-CFTR-HRP surface expression, CFBE41o- cells, read-out: DelF508-CFTR-HRP EC50
[4] = CFBE41o- cells, mean of at least two replicates, read-out: DelF508-CFTR-HRP EC50
[5] = CFBE41o- cells, surface expression Amax

T2 sequence (P13569 with tags, fused parts or gaps DEL508-508): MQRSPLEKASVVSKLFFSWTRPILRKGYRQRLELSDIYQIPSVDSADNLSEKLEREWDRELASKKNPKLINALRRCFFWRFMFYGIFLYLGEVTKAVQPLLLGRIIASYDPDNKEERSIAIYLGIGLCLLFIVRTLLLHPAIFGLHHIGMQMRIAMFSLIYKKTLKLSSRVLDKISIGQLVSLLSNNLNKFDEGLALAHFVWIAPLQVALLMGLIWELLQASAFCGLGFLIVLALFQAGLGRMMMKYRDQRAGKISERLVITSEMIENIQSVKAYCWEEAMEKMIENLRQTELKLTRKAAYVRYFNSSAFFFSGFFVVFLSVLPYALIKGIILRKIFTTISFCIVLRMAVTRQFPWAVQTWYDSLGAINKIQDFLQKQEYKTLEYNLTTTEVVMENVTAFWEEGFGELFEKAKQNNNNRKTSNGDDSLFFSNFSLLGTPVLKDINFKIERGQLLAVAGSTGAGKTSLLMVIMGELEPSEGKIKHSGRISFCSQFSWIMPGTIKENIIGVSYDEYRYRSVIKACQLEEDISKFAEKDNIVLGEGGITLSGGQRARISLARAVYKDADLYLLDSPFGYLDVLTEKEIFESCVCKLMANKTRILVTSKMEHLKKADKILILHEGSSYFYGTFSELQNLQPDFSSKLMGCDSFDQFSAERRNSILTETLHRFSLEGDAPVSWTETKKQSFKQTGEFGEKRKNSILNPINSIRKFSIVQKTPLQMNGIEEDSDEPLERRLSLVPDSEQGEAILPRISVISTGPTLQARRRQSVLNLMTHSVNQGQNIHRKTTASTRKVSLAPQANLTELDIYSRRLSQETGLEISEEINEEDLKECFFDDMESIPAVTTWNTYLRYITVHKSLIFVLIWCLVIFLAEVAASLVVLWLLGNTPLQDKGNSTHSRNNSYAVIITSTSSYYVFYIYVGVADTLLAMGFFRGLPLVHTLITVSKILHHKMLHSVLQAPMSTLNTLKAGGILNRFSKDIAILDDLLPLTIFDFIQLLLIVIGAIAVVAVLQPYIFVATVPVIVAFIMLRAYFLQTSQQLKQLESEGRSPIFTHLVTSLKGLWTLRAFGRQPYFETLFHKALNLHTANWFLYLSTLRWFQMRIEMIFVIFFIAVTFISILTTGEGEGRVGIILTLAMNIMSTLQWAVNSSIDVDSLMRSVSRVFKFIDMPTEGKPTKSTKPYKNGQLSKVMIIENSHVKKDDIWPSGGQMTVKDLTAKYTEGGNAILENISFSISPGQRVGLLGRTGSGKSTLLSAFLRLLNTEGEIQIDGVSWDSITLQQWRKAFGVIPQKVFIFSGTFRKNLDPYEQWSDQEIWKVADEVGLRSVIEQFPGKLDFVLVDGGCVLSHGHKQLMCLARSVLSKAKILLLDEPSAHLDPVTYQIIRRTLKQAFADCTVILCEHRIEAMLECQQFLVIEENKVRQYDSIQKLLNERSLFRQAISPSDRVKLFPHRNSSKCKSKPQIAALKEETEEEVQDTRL
T1 sequence (P13569 with tags, fused parts or gaps DEL508-508): as above

With `Cc1ccccc1-c1nc(NS(=O)(=O)c2cccc(OC3CC(C(=O)O)C3)n2)ccc1C(F)(F)F` (mixture of isomers) [Example 331, 3-((6-(N-(6-(o-tolyl)-5-(trifluoromethyl)pyridin-2-yl)sulfamoyl)pyridin-2-yl)oxy)cyclobutanecarboxylic Acid] the Emax [1, 2] was 218%, the EC50 [1, 3] was 1520 nM and the “MTECC24 CFHBEC- Amax %” value (delF508-CFTR) was 67.4%. It also gave an EC50 (delF508-CFTR) of 64.9 nM.
`CO[C@@H]1CNCC[C@H]1Nc1cccc(S(=O)(=O)Nc2ccc(C(F)(F)F)c(-c3ccccc3C)n2)n1` (racemic) [Example 116, 6-(((3R,4R)-3-methoxypiperidin-4-yl)amino)-N-(6-(o-tolyl)-5-(trifluoromethyl)pyridin-2-yl)pyridine-2-sulfonamide Hydrochloride] was tested, and the Emax [1, 2] was 370%, the EC50 [1, 3] was 3160 nM and the “MTECC24 CFHBEC- Amax %” value (delF508-CFTR) was 60.8%. It also gave an EC50 (delF508-CFTR) of 107 nM.
For `Cc1ccccc1-c1nc(NS(=O)(=O)c2cccc(N[C@@H]3CCOC[C@@H]3O)n2)ccc1C(F)(F)F` (racemic) [Example 275, rac-6-{[(3RS,4RS)-3-hydroxyoxan-4-yl]amino}-N-[6-(2-methylphenyl)-5-(trifluoromethyl)pyridin-2-yl]pyridine-2-sulfonamide], the EC50 [1, 3] was 1070 nM, the “MTECC24 CFHBEC- Amax %” value (delF508-CFTR) was 77.9% and the EC50 (delF508-CFTR) was 1.5 nM.
`Cc1ccccc1-c1nc(NS(=O)(=O)c2cccc(N[C@@H]3COCC[C@@H]3O)n2)ccc1C(F)(F)F` (racemic) [Example 280, rac-6-{[(3RS,4SR)-4-hydroxyoxan-3-yl]amino}-N-[6-(2-methylphenyl)-5-(trifluoromethyl)pyridin-2-yl]pyridine-2-sulfonamide] was tested, and the Emax [1, 2] was 844%, the EC50 [1, 3] was 1960 nM and the “MTECC24 CFHBEC- Amax %” value (delF508-CFTR) was 96.3%. The EC50 (delF508-CFTR) was 2.5 nM.
`Cc1cccc(C)c1-c1nc(NS(=O)(=O)c2cccc(O[C@@H]3COC[C@@H]3O)n2)ccc1Cl` (racemic) [Example 290, rac-N-[5-chloro-6-(2,6-dimethylphenyl)pyridin-2-yl]-6-{[(3R,4S)-4-hydroxyoxolan-3-yl]oxy}pyridine-2-sulfonamide] was tested, and the Emax [1, 2] was 616%, the EC50 [1, 3] was 1440 nM and the “MTECC24 CFHBEC- Amax %” value (delF508-CFTR) was 71.4%. For the same compound, the EC50 (delF508-CFTR) was 46.6 nM.
For `Cc1ccccc1-c1nc(NS(=O)(=O)c2cccc(O[C@@H]3COC[C@@H]3O)n2)ccc1C(F)(F)F` (racemic) [Example 291, rac-6-{[(3RS,4SR)-4-hydroxyoxolan-3-yl]oxy}-N-[6-(2-methylphenyl)-5-(trifluoromethyl)pyridin-2-yl]pyridine-2-sulfonamide], the Emax [1, 2] was 496%, the EC50 [1, 3] was 2500 nM and the “MTECC24 CFHBEC- Amax %” value (delF508-CFTR) was 73.6%. It also gave an EC50 (delF508-CFTR) of 13.3 nM.
`Cc1ccccc1-c1nc(NS(=O)(=O)c2cccc(O[C@@H]3COCC3(C)O)n2)ccc1C(F)(F)F` (mixture of isomers) [Example 293, rac-6-{[(3RR,4SR)-4-hydroxy-4-methyloxolan-3-yl]oxy}-N-[6-(2-methylphenyl)-5-(trifluoromethyl)pyridin-2-yl]pyridine-2-sulfonamide] was tested, and the Emax [1, 2] was 590%, the EC50 [1, 3] was 1960 nM and the “MTECC24 CFHBEC- Amax %” value (delF508-CFTR) was 78.6%. The EC50 (delF508-CFTR) was 22 nM.
`Cc1ccccc1-c1nc(NS(=O)(=O)c2cccc(N[C@@H]3CCNC[C@@H]3F)n2)ccc1C(F)(F)F` (relative stereo) [Example 117, 6-(((3S,4R)-3-fluoropiperidin-4-yl)amino)-N-(6-(o-tolyl)-5-(trifluoromethyl)pyridin-2-yl)pyridine-2-sulfonamide Hydrochloride] was tested, and the Emax [1, 2] was 264%, the EC50 [1, 3] was 2780 nM and the “MTECC24 CFHBEC- Amax %” value (delF508-CFTR) was 74.7%. It also gave an EC50 (delF508-CFTR) of 33.1 nM.
For `Cc1ccccc1-c1nc(NS(=O)(=O)c2cccc(N[C@@H]3CCOC[C@@H]3O)n2)ccc1C(F)(F)F` (single isomer, unassigned) [Example 276], the Emax [1, 2] was 523%, the EC50 [1, 3] was 3200 nM and the “MTECC24 CFHBEC- Amax %” value (delF508-CFTR) was 84.7%. It also gave an EC50 (delF508-CFTR) of 18.5 nM.
In the case of `Cc1ccccc1-c1nc(NS(=O)(=O)c2cccc(N[C@H]3CCOC[C@H]3O)n2)ccc1C(F)(F)F` (single isomer, unassigned) [Example 277], the Emax [1, 2] is reported as 817%, the EC50 [1, 3] is reported as 2010 nM and the “MTECC24 CFHBEC- Amax %” value (delF508-CFTR) is reported as 85.1%. It also gave an EC50 (delF508-CFTR) of 4.6 nM.
With `Cc1ccccc1-c1nc(NS(=O)(=O)c2cccc(N[C@@H]3COCC[C@@H]3O)n2)ccc1C(F)(F)F` (single isomer, unassigned) [Example 281] the Emax [1, 2] was 680%, the EC50 [1, 3] was 2010 nM and the “MTECC24 CFHBEC- Amax %” value (delF508-CFTR) was 85.9%. It also gave an EC50 (delF508-CFTR) of 3.7 nM.
For `Cc1ccccc1-c1nc(NS(=O)(=O)c2cccc(N[C@H]3COCC[C@H]3O)n2)ccc1C(F)(F)F` (single isomer, unassigned) [Example 282], the EC50 [1, 3] was 1880 nM, the “MTECC24 CFHBEC- Amax %” value (delF508-CFTR) was 69.6% and the EC50 (delF508-CFTR) was 2.4 nM.
For `Cc1ccccc1-c1nc(NS(=O)(=O)c2cccc(N3CC[C@@H](N)[C@@H](F)C3)n2)ccc1C(F)(F)F` [Example 111, 6-((3S,4R)-4-amino-3-fluoropiperidin-1-yl)-N-(6-(o-tolyl)-5-(trifluoromethyl)pyridin-2-yl)pyridine-2-sulfonamide Hydrochloride], the “MTECC24 CFHBEC- Amax %” value (delF508-CFTR) was 59.5% and the EC50 (delF508-CFTR) was 31.8 nM.
Work on `CCCC1(C(=O)O)CCCN(c2cccc(S(=O)(=O)Nc3ccc(Cl)c(-c4c(C)cccc4C)n3)n2)C1` (stereo not drawn) [Example 457, 1-(6-(N-(5-chloro-6-(2,6-dimethylphenyl)pyridin-2-yl)sulfamoyl)pyridin-2-yl)-3-propylpiperidine-3-carboxylic Acid] yielded an EC50 [1, 4] of 622 nM and an Emax [1, 5] of 702%.
`CCCC1(C(=O)O)CCCN(c2cccc(S(=O)(=O)Nc3ccc(C(F)(F)F)c(-c4ccccc4C)n3)n2)C1` (stereo not drawn) [Example 458, 3-propyl-1-(6-(N-(6-(o-tolyl)-5-(trifluoromethyl)pyridin-2-yl)sulfamoyl)pyridin-2-yl)piperidine-3-carboxylic Acid] gave an EC50 [1, 4] of 1600 nM and an Emax [1, 5] of 639%.
Work on `Cc1ccccc1-c1nc(NS(=O)(=O)c2cccc(N3[C@@H]4CC[C@H]3[C@@H](C(=O)O)C4)n2)ccc1C(F)(F)F` [Example 462, (1S,2S,4R)-7-(6-(N-(6-(o-tolyl)-5-(trifluoromethyl)pyridin-2-yl)sulfamoyl)pyridin-2-yl)-7-azabicyclo[2.2.1]heptane-2-carboxylic Acid] yielded an EC50 [1] of 2930 nM and an Emax [1, 5] of 108%.
For `Cc1ccccc1-c1nc(NS(=O)(=O)c2cccc(N3C[C@H](C(=O)O)CC[C@@H]3C)n2)ccc1C(F)(F)F` [Example 464], the EC50 [1, 4] was 2430 nM and the Emax [1, 5] was 816%.
Work on `Cc1cccc(C)c1-c1nc(NS(=O)(=O)c2cccc(N3CCC[C@@](C)(C(=O)O)C3)n2)ccc1C(F)(F)F` [Example 465, (R)-1-(6-(N-(6-(2,6-dimethylphenyl)-5-(trifluoromethyl)pyridin-2-yl)sulfamoyl)pyridin-2-yl)-3-methylpiperidine-3-carboxylic Acid] yielded an EC50 [1, 4] of 1730 nM.
